In patent US20230313299A1, “METHOD FOR DIAGNOSIS AND/OR PROGNOSIS OF LIVER DISEASE PROGRESSION AND RISK OF HEPATOCELLULAR CARCINOMA AND DISCOVERY OF THERAPEUTIC COMPOUNDS AND TARGETS TO TREAT LIVER DISEASE AND CANCER” (UNIVERSITÉ DE STRASBOURG, priority 2020, published 2023):
Entries after “also recorded” stand apart in the source; their conditions may differ.

Assays:
[1] = test system: 1693-gene signature and 25-gene signature (PES); test: Transcriptomic profiling (RNA-Seq, GSEA) of livers of DEN/CDAHFD mice; type: in vivo, mouse
Description: ChIPmentation based ChIP-Seq and RNA next-generation sequencing (NGS). ChIPmentation-based ChIP-Seq was performed as described. RNA-Seq was performed as described. Mouse RNA-Seq data was processed as described for patient's data but was instead mapped to the mouse genome mm10 and annotated using the Gencode vM15 gene annotation. Processing of ChIPmentation data was described, and data was partially derived from BioProject PRJNA506130. Since late stage fibrosis patients have the highest HCC risk, patient tissues from late stage fibrosis (F3 and F4) samples were included for all H3K27ac analyses as well as from the external CHC RNA-Seq dataset (GSE84346)[12]. Transcriptomic data for NASH patients was derived from external expression dataset (GSE115193)[13] and data for DAA-cured patients was published in BioProject PRJNA506130[6]. The RNA-Seq data from HCV-infected liver cells was published in (GSE126831)[14].
(§1) Analysis of gene expression of the prognostic epigenetic signature (PES) using nCounter expression or RNASeq analyses. Profiling of the PES was performed using Nanostring nCounter assay or RNASeq as described. Induction or suppression of the PES in gene expression data was determined as previously reported using the Gene Set Enrichment Analysis (GSEA), implemented in GenePattern genomic analysis toolkits. False discovery rate (FDR)<0.05 was regarded as statistically significant. […]

[2] = test system: DEN and CDAHFD-induced hepatocarcinogenesis; test: DEN/CDAHFD NASH-fibrosis-HCC mouse model: liver disease, fibrosis and tumor burden; type: in vivo; conditions: DEN/CDAHFD mice
From the text: FIG. 8. Reversal of the PES poor prognosis status in vivo by a bromodomain-4 inhibitor translates into improvement of liver disease and cancer prevention (A) Schematic representation of in vivo the proof-of-concept study using a mouse model of DEN and choline-deficient, L-amino acid-defined, high-fat diet (CDAHFD)-induced hepatocarcinogenesis. (B) Transcriptomic changes of genes with significant H3K27ac modifications from livers from patients with NASH and chronic hepatitis C (CHC) as explained in FIG. 1D (overlapping genes) and corresponding changes in vehicle or JQ1-treated DEN/CDAHFD mice. (C) Venn diagram showing epigenetically and transcriptionally altered genes in CHC/NASH patients and in DEN/CDAHFD mice, that were corrected by JQ1 treatment. Genes that harbor epigenetic and transcriptomic changes were identified in CHC/NASH patients and in DEN/CDAHFD mice. Among the changed genes, the inventors analyzed whether JQ1 could revert back their H3K27ac levels and their transcript expression levels. (H) GSEA enrichments of 1693-gene signature and 25-gene signature (PES) gene sets in data shown for JQ1-treated DEN/CDAHFD mice. (D) Improvement of liver disease and prevention of HCC. The global status corresponds to the difference between low risk- and high risk-gene expression. GSEA enrichments of 1693-gene signature and 25-gene signature (PES) gene sets in data shown for JQ1-treatment on panel B. The global status corresponds to the difference between low risk- and high risk-gene expression. […] Results are expressed as means±SEM. (F) Representative macroscopic photographs of livers (×1.5 magnified), H&E and Sirius red staining of liver sections from vehicle and JQ1-treated mice. Tumor nodules are indicated by an arrowhead and are delimited by dashed lines. […] Fibrosis stage was evaluated through quantitative digital analysis of whole-scanned liver sections (collagen proportional area (CPA)) in JQ1-treated (n=3) compared with JQ1-untreated (n=3) mice. Results are expressed as means±SD.
Example 5: Reversal of the PES poor prognosis status in vivo translates into improvement of liver disease, inhibition of fibrosis progession and cancer prevention. To investigate (1) whether the PES is modeled in animal models for liver disease and (2) reversal of the […] poor prognosis status by a compound correlates with improvement of liver disease and cancer prevention, the inventors studied the 1693 gene signature and the 25 gene subset expression in a NASH-fibrosis-HCC mouse model, in which the mice are treated with the BRD inhibitor JQ1 following development of liver disease. In this model a Choline-deficient high-fat-diet (CDHFD) diet combined with DEN, a chemical carcinogen, induces liver fibrosis progressing to HCC. […] Mice were treated with JQ1 after 6 weeks of CDAHFD feeding when liver disease developed (FIG. 8A).

[3] = test system: Prognostic Epigenetic Signature (PES, 25-gene signature) in HCV Jc1-infected Huh7.5.1dif cells; test: PES cell-based model: HCV-infected differentiated Huh7.5.1 cells, PES expression by RNA-Seq or nCounter; parameters: species or system human; conditions: JQ1 50 nM, Nizatidine 10 μM, Captopril 1 μM, Pioglitazone 1 μM
Description: Cell-based models. Huh7.5.1 and human stellate LX2 cells were cultured in Dulbecco's Modified Eagle Medium (DMEM) supplemented with 10% heat-decomplemented fetal bovine serum FBS, gentamycin (0.05 mg/mL) and non-essential amino acids (complete DMEM) at 37° C. with 5% CO2. For proliferation arrest and differentiation ([…] cells), Huh7.5.1 cells were cultured in complete DMEM supplemented 1% DMSO [5]. All cell lines were certified mycoplasma-free. To analyze the PES induction […] cells were infected with HCV Jc1 (genotype 2a/2a) for a total of 10 days. Cells were then treated with Captopril (1 μM), Nizatidine (10 μM), Pioglitazone (1 μM), JQ1 (50 nM). For the FFA model, Huh7.5.1^dif cells were cocultured with 20% LX-2 cells. Following co-culture for 3 days in DMEM supplemented with 10% heat-decomplemented FBS, gentamycin and 1% DMSO at 37° C. and 5% CO2, cells were incubated with FFA (800 μM oleic acid and 400 μM palmitic acid) for 72 h.
as §1, with “toolkits.” for “toolkits. False discovery rate (FDR)<0.05 was regarded as statistically significant.”

| SMILES | GSEA enrichment of 1693-gene signature and 25-gene signature (PES) gene sets after treatment [1] | Expression of H3K27ac-altered genes in patients reverted by treatment ([1]; 1007 out of 1693 genes) | Tumor burden in vivo [2] | Liver fibrosis measured by collagen proportionate area (CPA) ([2]; treated n=3 vs untreated n=3) | Body weight ([2]; treated n=8 vs untreated n=8) | Liver weight ([2]; treated n=8 vs untreated n=8) | Number of tumor nodules ([2]; treated n=8 vs untreated n=8) | Reversal of PES (25-gene signature) from HCC high risk, poor prognosis status to HCC low risk, good prognosis status [3] |
| --- | --- | --- | --- | --- | --- | --- | --- | --- |
| Cc1sc2c(c1C)C(c1ccc(Cl)cc1)=N[C@@H](CC(=O)OC(C)(C)C)c1nnc(C)n1-2 [JQ1] | correspondingly (i.e., reversely) enriched | 59% | significantly reduces tumor burden | efficiently reduces liver fibrosis; also recorded: significantly (p<0.05) reduced | stable; also recorded: without altering | significantly reduced | reduced; also recorded: overall decrease in their number | Reversal of the poor prognosis/HCC high risk genes to good prognosis/HCC low risk expression; also recorded: reverted the 25-gene signature (PES) |
| CNC(=C[N+](=O)[O-])NCCSCc1csc(CN(C)C)n1 [Nizatidine] | – | – | – | – | – | – | – | Reversal of the poor prognosis/HCC high risk genes to good prognosis/HCC low risk expression |
